Data on 10 compounds can be found in US11059832B2, “HPK1 inhibitors and methods of using same” (University Health Network, priority 2015, dated 2021).

Common to all, as to assay type: biochemical
One experiment concerns the target T1, FLT3 (Homo sapiens, UniProt P36888).
T1 construct: purchased Invitrogen PV3182
T1 sequence (P36888 27-993): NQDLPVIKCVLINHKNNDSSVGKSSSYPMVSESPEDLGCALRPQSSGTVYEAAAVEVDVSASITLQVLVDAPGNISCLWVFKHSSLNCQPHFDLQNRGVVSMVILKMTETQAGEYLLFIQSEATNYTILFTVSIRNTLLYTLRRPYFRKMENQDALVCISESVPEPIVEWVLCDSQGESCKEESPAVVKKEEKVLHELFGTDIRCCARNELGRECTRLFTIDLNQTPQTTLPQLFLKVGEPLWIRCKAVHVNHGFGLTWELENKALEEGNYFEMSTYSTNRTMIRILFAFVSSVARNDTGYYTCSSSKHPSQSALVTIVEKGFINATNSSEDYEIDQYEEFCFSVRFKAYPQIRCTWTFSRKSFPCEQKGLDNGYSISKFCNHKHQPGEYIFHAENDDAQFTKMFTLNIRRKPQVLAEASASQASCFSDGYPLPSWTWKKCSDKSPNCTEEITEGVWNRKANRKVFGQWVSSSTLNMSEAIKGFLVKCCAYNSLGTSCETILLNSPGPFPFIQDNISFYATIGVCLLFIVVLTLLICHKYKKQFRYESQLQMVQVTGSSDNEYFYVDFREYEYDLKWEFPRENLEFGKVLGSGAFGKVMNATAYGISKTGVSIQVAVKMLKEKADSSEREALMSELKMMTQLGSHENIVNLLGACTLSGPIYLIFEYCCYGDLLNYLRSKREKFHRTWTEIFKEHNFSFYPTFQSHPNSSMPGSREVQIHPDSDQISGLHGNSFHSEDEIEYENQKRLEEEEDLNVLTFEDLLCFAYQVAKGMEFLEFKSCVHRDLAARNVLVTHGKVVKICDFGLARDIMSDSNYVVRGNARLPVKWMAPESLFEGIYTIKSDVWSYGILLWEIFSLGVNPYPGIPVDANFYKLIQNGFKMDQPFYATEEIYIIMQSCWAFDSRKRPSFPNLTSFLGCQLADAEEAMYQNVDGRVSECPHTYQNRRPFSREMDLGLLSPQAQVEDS
The experiment is described as follows: FLT3 inhibition, FRET based Z'-LYTE Kinase Assay. The note with it: 1 nM FLT3, 940 μM ATP; read-out: IC50 Range Flt3. Here is the method: (§1) FLT3 and LCK compound inhibition were determined using FRET based Z′-LYTE Kinase Assay Kit with Tyrosine 2 peptide as the substrate (Invitrogen cat #PV3191). […] The % inhibition values were determined according to the manufacturer's directions and IC50 values were obtained using a non-linear 4 point logistic curve fit (XLfit4, IDBS).

A further experiment has as its target T2, LCK (Homo sapiens, UniProt P06239).
T2 construct: purchased Invitrogen P3043
The experiment is described as follows: LCK inhibition, FRET based Z'-LYTE Kinase Assay. The conditions noted are these: 25 nM LCK, 180 μM ATP; read-out: IC50 Range Lck. Here is the method:
as §1

The target in the next experiment is T3, human HPK1 (MAP4K1) (Homo sapiens, UniProt Q92918).
T3 construct: human HPK1 (aa 1-346); purchased Invitrogen PV6355
T3 sequence (Q92918 1-346): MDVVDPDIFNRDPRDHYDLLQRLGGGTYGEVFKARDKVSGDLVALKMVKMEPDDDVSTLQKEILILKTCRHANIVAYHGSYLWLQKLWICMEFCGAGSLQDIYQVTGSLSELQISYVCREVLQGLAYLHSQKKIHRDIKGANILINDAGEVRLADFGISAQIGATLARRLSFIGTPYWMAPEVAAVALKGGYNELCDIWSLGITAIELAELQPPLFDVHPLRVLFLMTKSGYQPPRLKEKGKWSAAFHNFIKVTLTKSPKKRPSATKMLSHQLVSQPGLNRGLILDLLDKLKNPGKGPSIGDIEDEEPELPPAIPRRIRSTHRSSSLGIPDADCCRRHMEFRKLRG
Put plainly: HPK1 inhibition assay (indirect ELISA). The conditions noted are these: GST-HPK1 0.6 nM, 12 μM ATP; read-out: IC50 Range HPK1. The method, then: Active HPK1 (MAP4K1) was purchased as an N-terminal GST fusion of human HPK1 (aa 1-346) from Invitrogen (cat #PV6355). HPK1 activity was measured using an indirect ELISA detection system. GST-HPK1 (0.6 nM) was incubated in the presence of 12 μM ATP (Sigma cat #A7699), 5 mM MOPS (pH 7.2), 2.5 mM β-glycerol-phosphate, 5 mM MgCl2, 0.4 mM EDTA, 1 mM EGTA, 0.05 mM DTT, in a 96 well microtitre plate pre-coated with 0.5 μg/well bovine myelin basic protein (MBP) (Millipore, cat #13-110). The reaction was allowed to proceed for 30 min, followed by 5 washes of the plate with Wash Buffer (phosphate buffered saline supplemented with 0.2% Tween 20), and incubation for 30 min with a 1:3000 dilution of anti-phospho-threonine rabbit polyclonal antibody (Cell Signaling cat #9381). The plate was washed 5 times with wash buffer, incubated for 30 min in the presence of goat anti-rabbit horse radish peroxidase conjugate (BioRad cat #1721019, 1:3000 concentration), washed an additional 5 times with wash buffer, and incubated in the presence of TMB substrate (Sigma cat #T0440). The colorimetric reaction was allowed to continue for 5 min, followed by addition of stop solution (0.5 N H2SO4), and quantified by detection at 450 nm with a monochromatic plate reader (Molecular Devices M5).
Compound inhibition was determined at either a fixed concentration (10 μM) or at a variable inhibitor concentration (typically 50 μM to 0.1 μM in a 10 point dose response titration). Compounds were pre-incubated in the presence of enzyme for 15 min prior to addition of ATP and the activity remaining quantified using the above described activity assay. The % inhibition of a compound was determined using the following formula; % inhibition=100×(1−(experimental value−background value)/(high activity control−background value)). The IC50 value was determined using a non-linear 4 point logistic curve fit (XLfit4, IDBS) with the formula; (A+(B/(1+((x/C)^D)))), where A=background value, B=range, C=inflection point, D=curve fit parameter.

A word on the IC50: it is the point on the concentration scale where inhibition reaches its midpoint.

Bounds are passed on as bounds.

T2 sequence (P06239 whole entry, species assumed): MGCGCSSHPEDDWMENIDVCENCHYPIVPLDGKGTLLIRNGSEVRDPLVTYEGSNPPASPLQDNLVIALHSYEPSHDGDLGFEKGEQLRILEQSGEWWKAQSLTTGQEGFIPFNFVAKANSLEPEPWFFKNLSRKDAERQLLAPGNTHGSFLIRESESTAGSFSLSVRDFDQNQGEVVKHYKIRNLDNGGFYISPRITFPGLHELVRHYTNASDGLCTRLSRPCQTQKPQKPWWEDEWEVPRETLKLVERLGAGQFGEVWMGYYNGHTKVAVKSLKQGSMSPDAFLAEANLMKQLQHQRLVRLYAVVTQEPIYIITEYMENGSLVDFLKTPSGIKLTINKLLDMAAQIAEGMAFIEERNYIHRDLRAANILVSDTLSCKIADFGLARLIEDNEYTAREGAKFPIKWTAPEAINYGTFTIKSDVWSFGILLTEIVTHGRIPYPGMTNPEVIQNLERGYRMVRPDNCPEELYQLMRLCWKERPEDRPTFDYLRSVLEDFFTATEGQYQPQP

As for `Nc1c(-c2nc3ccc(N4CCNCC4)cc3[nH]2)c(=O)[nH]c2sccc12` [Example A64, 4-amino-5-(6-(piperazin-1-yl)-1H-benzo[d]imidazol-2-yl)thieno[2,3-b]pyridin-6(7H)-one], the IC50 on FLT3 was at most 50 nM; on LCK it was 50 to 500 nM; on human HPK1 (MAP4K1), at most 50 nM.
On to `Nc1c(-c2nc3ccc(N4CCOCC4)cc3[nH]2)c(=O)[nH]c2sccc12` [Example A4, 4-amino-5-(6-morpholino-1H-benzo[d]imidazol-2-yl)thieno[2,3-b]pyridin-6(7H)-one], for which the IC50 on FLT3 is at most 50 nM; on LCK, 50 to 500 nM; on human HPK1 (MAP4K1), at most 50 nM.
As for `CN1CCN(c2ccc3nc(-c4c(N)c5ccsc5[nH]c4=O)[nH]c3c2F)CC1` [Example A69, 4-amino-5-(7-fluoro-6-(4-methylpiperazin-1-yl)-1H-benzo[d]imidazol-2-yl)thieno[2,3-b]pyridin-6(7H)-one], the IC50 was at most 50 nM on FLT3 and 50 to 500 nM at LCK.
As for `O=c1[nH]c2sccc2c(N[C@H]2CCCC[C@H]2O)c1-c1nc2ccc(N3CCOCC3)cc2[nH]1` [Example A72, 4-(((1S,2R)-2-hydroxycyclohexyl)amino)-5-(6-morpholino-1H-benzo[d]imidazol-2-yl)thieno[2,3-b]pyridin-6(7H)-one], the IC50 is at most 50 nM at FLT3, over 500 nM on LCK and at most 50 nM at human HPK1 (MAP4K1).
Consider `CN1CCN(c2ccc3nc(-c4c(N[C@H]5CCNC[C@H]5F)c5ccsc5[nH]c4=O)[nH]c3c2)CC1` (relative stereo) [Example A55, 4-(((3R*,4S*)-3-fluoropiperidin-4-yl)amino)-5-(6-(4-methylpiperazin-1-yl)-1H-benzo[d]imidazol-2-yl)thieno[2,3-b]pyridin-6(7H)-one], for which the IC50 at FLT3 is at most 50 nM; on LCK it was 50 to 500 nM; on human HPK1 (MAP4K1), at most 50 nM.
With `CN1CCN(c2ccc3nc(-c4c(N[C@H]5CCNC[C@@H]5F)c5ccsc5[nH]c4=O)[nH]c3c2)CC1` [Example A54, 4-(((3S,4S)-3-fluoropiperidin-4-yl)amino)-5-(6-(4-methylpiperazin-1-yl)-1H-benzo[d]imidazol-2-yl)thieno[2,3-b]pyridin-6(7H)-one], the IC50 on FLT3 was at most 50 nM; on LCK it was 50 to 500 nM; on human HPK1 (MAP4K1), at most 50 nM.
For the compound `CN1CCN(c2ccc3nc(-c4c(NC5CCOCC5)c5ccsc5[nH]c4=O)[nH]c3c2)CC1` [Example A7, 5-(6-(4-methylpiperazin-1-yl)-1H-benzo[d]imidazol-2-yl)-4-((tetrahydro-2H-pyran-4-yl)amino)thieno[2,3-b]pyridin-6(7H)-one], the IC50 is at most 50 nM on FLT3, 50 to 500 nM at LCK and at most 50 nM at human HPK1 (MAP4K1).
With `CN1CCN(c2ccc3nc(-c4c(N[C@@H]5CC[C@H](O)C5)c5sccc5[nH]c4=O)[nH]c3c2)CC1` (relative stereo) [Example A36, 7-(((1R*,3S*)-3-hydroxycyclopentyl)amino)-6-(6-(4-methylpiperazin-1-yl)-1H-benzo[d]imidazol-2-yl)thieno[3,2-b]pyridin-5(4H)-one], the IC50 on FLT3, on LCK and at human HPK1 (MAP4K1) was at most 50 nM in each case.
Take `CN1CCN(c2ccc3nc(-c4c(N[C@H]5CCCC[C@H]5O)c5cscc5[nH]c4=O)[nH]c3c2)CC1` [Example A70, 4-(((1S,2R)-2-hydroxycyclohexyl)amino)-3-(6-(4-methylpiperazin-1-yl)-1H-benzo[d]imidazol-2-yl)thieno[3,4-b]pyridin-2(1H)-one]: the IC50 on FLT3 and on LCK was at most 50 nM each time.
Take `CN1CCN(c2ccc3nc(-c4c(N5CCC(O)CC5)c5sccc5[nH]c4=O)[nH]c3c2)CC1` [Example A50, 7-(4-hydroxypiperidin-1-yl)-6-(6-(4-methylpiperazin-1-yl)-1H-benzo[d]imidazol-2-yl)thieno[3,2-b]pyridin-5(4H)-one]: the IC50 at LCK and at human HPK1 (MAP4K1) was over 500 nM throughout.
